In patent US20240124538A1, “Modulation of Wnt5a to Treat Glaucoma” (The Regents of the University of California, priority 2017, published 2024):

Key:
Wnt5a [1] = target: T1, Wnt5a (Mus musculus, UniProt P22725); test: Mouse model of pathogenic IOP, inhibitor delivered by eye drops; type: in vivo
T1 construct: from tissue; host or cells: eye of living mice (Schlemm's canal / anterior chamber)
T1 sequence (P22725 62-380): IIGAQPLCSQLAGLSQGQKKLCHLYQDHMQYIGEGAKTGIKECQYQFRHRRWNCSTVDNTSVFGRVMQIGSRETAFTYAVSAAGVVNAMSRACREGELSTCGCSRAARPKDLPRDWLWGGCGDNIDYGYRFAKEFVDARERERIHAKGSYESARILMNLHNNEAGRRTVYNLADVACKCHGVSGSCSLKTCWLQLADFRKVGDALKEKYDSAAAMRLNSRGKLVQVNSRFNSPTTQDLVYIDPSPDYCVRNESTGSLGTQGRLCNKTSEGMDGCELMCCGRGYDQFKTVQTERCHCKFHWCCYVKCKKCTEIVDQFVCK
Method: In one protocol subconjuctival injection of siRNA is performed as described by Yuen et al. (2014, Invest Ophthalmol Vis Sci. 2014; 55:3320-3327). Mice are randomly selected to receive subconjunctival injection of 5 uL (0.2 1g/uL) siRNA or control twice a week for 2 weeks. In a second protocol intracameral injection of siRNA is performed as described by Tam et al. (2017, Scientific Reports 7, 40717). Mice are anaesthetized by intra-peritoneal injection, and pupils are dilated. A pulled blunt-ended micro-glass needle is first used to puncture the cornea to withdraw aqueous humour Immediately after puncture, a pulled blunt-ended micro-glass needle attached to a 10 μl syringe is inserted through the puncture, and 1.5 μl of PBS containing 1 μg siRNA is administered into the anterior chamber. Contralateral eyes receive an identical injection of 1.5 μl containing the same concentration of scrambled siRNA.

Wnt5a [2] = target: T2, Wnt5a (Oryctolagus cuniculus, UniProt Q27Q52); test: Rabbit model of pathogenic IOP, inhibitor delivered by eye drops; type: in vivo
T2 construct: New Zealand White rabbits receive a topical administration; from tissue; host or cells: eye of living New Zealand White rabbits
T2 sequence (Q27Q52 62-380): T1 sequence (P22725 62-380)
From the text: To assess the effect of siRNA delivered by eye drops on IOP, we developed an additional protocol based on the methods of Martinez et al. (Mol Ther. 2014 January; 22(1):81-91), wherein New Zealand White rabbits receive a topical administration of either 20 nmol/day of siRNA or phosphate-buffered saline (PBS) over a period of 4 consecutive days.

[3] = Shinonaga et al. 2009; cited from earlier work
WNT-5A = conditions: Shinonaga et al. 2009; cited from earlier work

In the case of 6,7-dihydro-10alpha-hydroxy radicicol, the “therapy of pathogenic IOP” value (Wnt5a [1]) is given as “effective therapies for pathogenic IOP”, the “therapy of pathogenic IOP” value (Wnt5a [2]) is given as “effective therapies for pathogenic IOP” and the toxicity [3] is given as “relatively low toxicity”. For the same substance, the WNT-5A expression inhibition (WNT-5A) was “potent WNT-5A expression inhibitor”.
